The values that follow come from patent US20220397566A1, “GAMMA-SECRETASE STABILIZING COMPOUND SCREENING ASSAY” (VIB VZW, priority 2019, published 2022).

Assay [1] has as its target T1, PSEN1/g-secretase complex (Homo sapiens, UniProt P49768).
T1 construct: expressed in transfected cells
The experiment in a line: Relocation of GFP-PSEN1/g-secretase to LAMP1-positive late endosomes (confocal immunofluorescence). Type of assay: cell-based, mouse.

The next assay has as its system FAD-PSEN1 mutants. Description: Late endosomal localisation of FAD-PSEN1 mutants in PSEN1 KO MEFs. Type of assay: cell-based, mouse. As to conditions: DAPT 1 μM 16 h. The protocol:
FIG. 6. Familial Alzheimer's disease (FAD) mutations in PSEN1 differently affect g-secretase localization in late endosomes. Ratio of GFP intensity in LAMP1 endosomes over total GFP signal in PSEN1 KO MEFs stably rescued with GFP-PSEN1 wild-type (Wt) or the indicated FAD-PSEN1 mutants and treated with DMSO or DAPT (1 μM) 16 h.
As these mutations were reported to have an early onset and high thermo-instability (reflecting lowest processivity), we extended this experiment to other mutations reported in Szaruga et al (2017 Cell 170). In line with the above, the PSEN1-P88L mutation translocated PSEN1/g-secretase to late endosomes as well. […] These mutations have a higher onset and affect the Ab processivity less as compared to L166P, G384A and P88L mutants.

The next assay has as its target T2, g-secretase complex (Homo sapiens, UniProt P49768).
T2 construct: expressed in transfected cells
The experiment in a line: Cadherin CTF and APP CTF accumulation (Western blot). The format is cell-based, mouse. The note with it: FIG. 7 Western blot. The protocol:
Second, of all these compounds, the inhibitory action on g-secretase activity was determined by quantifying the production of the C-terminal fragments (CTF) of Cadherin and APP. Both Cadherin-CTF and APP-CTF accumulate when the enzymatic activity of the g-secretase complex is inhibited. As can be appreciated from the Western blot in FIG. 7, all tested g-secretase inhibitors (C1, C2, C4 and C8) induced the level of Cadherin CTF and APP CTF in contrast to the negative control and the g-secretase stabilizers.
Protein concentrations were determined by the Bio-Rad DC protein assay (Bio-Rad). Samples were separated by SDS-PAGE (4-12% Bis-Tris NuPAGE gels in MES running buffer (ThermoFisher Scientific) and transferred onto nitrocellulose membranes (ThermoFisher Scientific). After blocking in 5% non-fat milk, membranes were incubated with primary antibody (4° C., overnight) followed by washing and incubation with horseradish peroxidase (HRP)-conjugated secondary antibodies (1 h, room temperature). After final washing, immunodetection was done using enhanced chemiluminescence (Western Lightning-Plus ECL, PerkinElmer), and immunoreactive protein bands were digitally captured and quantified on a Fuji MiniLAS 3000 imager (Fuji, Dusseldorf, Germany) using Aida Image Analyzer software (Raytest, Germany). Data are represented as mean±SEM of at least three independent experiments.
(In western blotting, separated proteins are transferred to a membrane and probed.)

The target in another assay is PSEN1/g-secretase (Homo sapiens, UniProt P49768). The experiment in a line: GFP-PSEN1 relocation in primary hippocampal neurons. The format is cell-based. Details: expressed in transfected cells; host or cells: rat (E18) primary hippocampal neurons, lentiviral pFUGW-GFP-PSEN1. The note with it: rat primary hippocampal neurons, 1 μM. The protocol:
FIG. 1. DAPT relocates PSEN1/g-secretase to late endosomes. (A) PSEN1 and PSEN2 double knock-out (dKO) MEFs stably expressing GFP-PSEN1 or GFP-PSEN2 were treated for 16 h with 1 μM of DAPT or DMSO and immunostained for GFP (green) and LAMP1 antibodies (red). (B) Quantification of (A) using Mander's coefficient. (C) Ratio of GFP intensity in LAMP1-positive structures over total GFP intensity in the cell, normalized to DMSO-treated cells (control=Ctrl). (D) Quantification of size area of LAMP1-positive organelles per cell showing no significant differences between DMSO and DAPT-treated cells. (E) PSEN1, PSEN2 and NCT triple KO MEFs stably rescued with NCT-SNAP and GFP-PSEN1 were treated for 16 h with 1 μM of DAPT or DMSO (Ctrl). Prior to fixation, SNAP-Cell 647-SiR was added to label NCT-SNAP (red for Merge2). After 1 h, cells were fixed and immunostained for GFP (green) and LAMP1 (red for Merge2). Two merged images are shown. […] All graphs show the median with 95% confidence interval (n=3, ˜20 cells per experiments; p-values are calculated using Mann-Whitney test; ns means non-significant). […]
The plasmids pSG5-C99-3×FLAG and pMSCV-GFP-PSEN1-wt and FADs, pFUGW-GFP-PSEN1 were previously described (Sannerud et al 2016 Cell 166). […] Primary hippocampal neurons were infected at 3 to 4 days in vitro (DIV) and analyzed at 7 DIV.

Turning to `C[C@H](NC(=O)Cc1cc(F)cc(F)c1)C(=O)N[C@H](C(=O)OC(C)(C)C)c1ccccc1` [DAPT, N—[N-(3,5-difluorophenacetyl)-L-alanyl]-S-phenylglycine t-butyl ester], the “co-distribution of EGFP-PSEN1 with anti-LBPA immunoreactivity (late endosomes)” value in assay [1] (PSEN1 KO MEFs rescued with GFP-PSEN1, 1 μM, 16 h) is listed as “even more strongly co-distributed with anti-LBPA immunoreactivity”. Besides, the “relocation of EGFP-PSEN1 to LAMP1-positive organelles” value in assay [1] (single PSEN1 KO MEFs stably transduced with EGFP-PSEN1, data not shown) was “Identical observations”. For the same compound, the “co-accumulation of EGFP-PSEN1 and NCT-SNAP in LAMP1-positive organelles” value in assay [1] (triple KO MEFs rescued with EGFP-PSEN1 and NCT-SNAP, 1 μM, 16 h) was “co-accumulate in LAMP1-positive organelles”. In the assay with FAD-PSEN1 mutants (L166P, G384A, P88L mutants), the “late endosomal localization of mutant PSEN1” value is listed as “did not further increase late endosomal localization”. The “shift of PSEN1/g-secretase to late endosomes” value in the assay on FAD-PSEN1 mutants (Y115H and E280A mutants) was “did not shift PSEN1/g-secretase to late endosomes, unless treated with DAPT”. Also, at g-secretase complex, the “level of APP CTF” value is listed as “accumulate” and the “level of Cadherin CTF” value is given as “accumulate”. Moreover, the “relocation of GFP-PSEN1” value at PSEN1/g-secretase is listed as “Identical observations”.
